Entries after “also recorded” stand apart in the source; their conditions may differ.
Key:
hMC4R [1] = molecular target: T1, hMC4R (Homo sapiens (Human), UniProt P32245); assay: LANCE cAMP assay, hMC4R PAM; assay type: cell-based; settings: for hMC4R PAM LANCE pEC50 Mean: HEK293 cells stably expressing the hMC4R, α-MSH at an EC20 dose; for pEC50 / Emax: in vitro characterisation; for Emax: read-out: % of αMSH maximal response
Experimental: Analysis of pharmacological properties of compounds was performed using the LANCE cAMP kit (Perkin Elmer). HEK293 cells stably expressing the hMC4R were treated with PAM compounds at doses indicated, then incubated with an Alexa Fluor 647-labeled antibody in stimulation buffer according to manufacturer's instructions for 30 min at RT. Next, α-MSH was added (at an EC20 dose or at doses indicated for concentration-response curves), and plates were incubated for 15 minutes at RT, followed by the addition of 10 μL of detection mix. Plates were then incubated for 30 minutes at RT and read on a Viewlux (Perkin Elmer) using 618 and 671 nm emission filters. IBMX was not included in the assay.

native L cell MC4R = native L cell MC4R (Mus musculus (Mouse), UniProt P56450); assay: Ussing chamber assay, α-MSH inhibition of VIP-elevated Isc in mouse colon mucosa; settings: for α-MSH response (inhibition of Isc) after pretreatment: α-MSH 300 nM; for Effect of compound alone on basal Isc: basolateral, Example 3 at 200 nM or 1 μM, vs vehicle
Sequence of native L cell MC4R (P56450 whole entry): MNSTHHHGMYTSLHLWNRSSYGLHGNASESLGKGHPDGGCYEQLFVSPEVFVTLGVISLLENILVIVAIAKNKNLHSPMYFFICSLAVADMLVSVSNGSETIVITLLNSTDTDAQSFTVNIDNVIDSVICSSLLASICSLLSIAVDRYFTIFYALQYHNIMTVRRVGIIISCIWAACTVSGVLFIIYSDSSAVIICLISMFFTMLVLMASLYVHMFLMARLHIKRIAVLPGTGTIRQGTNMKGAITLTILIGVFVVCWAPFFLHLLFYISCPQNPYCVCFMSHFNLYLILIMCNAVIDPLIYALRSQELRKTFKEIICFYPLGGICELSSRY
Experimental: (§1) FIGS. 2A-2I contain data on the characterization of hMC4R PAMs Examples 1, 2, and 3. FIGS. 2A, 2B, and 2C show structures of Examples 1-3, and the affect of Examples 1-3 on the α-MSH dose-response curve at the hMC4R, as determined using the Lance assay. Insets show the concentration-response effect as a function of the fold shift on the α-MSH concentration response curve. […] After α-MSH responses had waned all tissues received PYY (10 nM) to verify residual Y receptor anti-secretory activity. Basal Isc values are indicated to the left of each trace from an exposed area of 0.14 cm^2. Vertical arrows show the timepoint at which α-MSH Isc responses were recorded. […] Each value is the mean±1 SEM with n values in parentheses. ** P<0.01 using one-way ANOVA with Dunnett's post-test.
(§2) GI tissue from adult (12-20 week old) male C57BL/6J mice were dissected free of overlying smooth muscle and mucosae placed between 2 halves of Ussing chambers exposing an area of 0.14 cm^2. Mucosae were bathed both sides with Krebs-Henseleit (KH) buffer of following composition (in mM: 117 NaCl, 24.8 NaHCO3, 4.7 KCl, 1.2 MgSO4, 1.2 KH2PO4, 2.5 CaCl2 and 11.1 D-glucose) aerated with 95% O2/5% CO2 (pH 7.4) and voltage-clamped at 0 mV as described in detail previously (Cox et al., 2001; Cox and Tough, 2002). MC4R activity in mouse colonic epithelium was then characterized. Mouse mucosae were pretreated with vehicle or PAM compounds, then with secretagogue, VIP (10 nM, basolateral), and once elevated ISC had reached its peak and was declining at a constant rate, α-MSH was added to the basolateral reservoir to determine responses.
(§3) ISC responses in μA are expressed as the mean±SEM per unit area (cm2). Single comparisons (using GraphPad Prism) were performed using Student's unpaired t-test while multiple comparisons utilized 1-way ANOVA with Dunnett's post test and P≤0.05 were considered statistically significant.

Y receptor = assay: Ussing chamber assay, PYY responses in mouse colon mucosa; settings: PYY 10 nM; Example 3 at 200 nM or 1 μM
Experimental: as §1, §2, §3

C57BL/6 mice = assay: Inhibition of fast-induced refeeding in the mouse; assay type: in vivo; settings: single i.p. dose 5 mg/kg; overnight fasted mice; food intake after two and six hours
Experimental: FIG. 4 contains data from assays of inhibition of food intake in the mouse by MC4R PAM Example 3. Nine to ten week old C57BL/6 mice were fasted overnight (15 to 17 hours) and re-feeding was monitored the following day after a single i.p. dose of Example 3 (5 mg/kg) or vehicle (10% Tween 80, 5% DMSO v/v). Normalized food intake (food consumed in grams per 100 grams of body weight) per treatment group is shown in the top graphs after two hours (top left) and six hours (top right) of onset of re-feeding phase. Body weight changes for two and six hours are shown in the bottom left and right panels respectively. p values are noted on each graph and were determined by unpaired t tests. Significance was set to p values <0.05.

[2] = molecular target: human β2-adrenergic receptor (Homo sapiens (Human), UniProt P07550); assay: pGLO cAMP assay, counterscreen; assay type: cell-based; settings: Isop EC20
Sequence of human β2-adrenergic receptor (P07550 whole entry): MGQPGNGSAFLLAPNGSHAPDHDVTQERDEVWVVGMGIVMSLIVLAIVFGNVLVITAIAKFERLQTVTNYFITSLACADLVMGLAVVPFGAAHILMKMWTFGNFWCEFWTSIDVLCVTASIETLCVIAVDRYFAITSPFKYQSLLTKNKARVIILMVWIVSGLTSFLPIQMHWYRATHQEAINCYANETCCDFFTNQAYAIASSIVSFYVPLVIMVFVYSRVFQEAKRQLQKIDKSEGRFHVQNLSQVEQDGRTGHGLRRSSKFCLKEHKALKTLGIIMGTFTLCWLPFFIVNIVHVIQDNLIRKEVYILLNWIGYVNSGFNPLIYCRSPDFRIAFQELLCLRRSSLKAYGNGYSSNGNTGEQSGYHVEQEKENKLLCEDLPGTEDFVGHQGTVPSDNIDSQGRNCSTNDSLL
Experimental: (§4) Drug screening for identification of hits and initial characterization of MC4R PAM compounds were performed using the pGLO assay, as described previously (Pantel J, et al., (2011) Development of a high throughput screen for allosteric modulators of melanocortin-4 receptor signaling using a real time cAMP assay. Eur J Pharmacol 660:139-147. HEK293 cells stably expressing the hMC4R or the hB2ADR with GloSensor (Promega) were plated at a density of 10,000 to 15,000 cells per well on Poly-D-Lysin coated black optical bottom 384 well plates in MEM supplemented with 2% serum. The next day, cells were loaded with the cAMP Glo reagent at a 2% concentration in CO2-independent media for 2 hours at 37° C. […]
(§5) HEK293 cells stably expressing the hMC4R or the β-adrenergic receptor with the p-Promega pGlo luciferase cAMP reporter were plated at a density of 10,000 to 15,000 cells per well on Poly-D-Lysin coated black optical bottom 384 well plates in MEM supplemented with 2% serum. The next day, cells were loaded with the p-Glo substrate at a 2% concentration in CO2-independent media for 2 hours at 37° C. cAMP concentration in cells were measured as a function of luminescence over time using a Hamamatsu FDSS 6000 plate reader. Basal luminescence were measured for 5 minutes followed by injection of 1 μM of the library compounds. […]

hMC4R [3] = molecular target: T1, hMC4R; assay: pGLO cAMP assay, PAM HTS primary screen; assay type: cell-based; settings: 1 μM of library compound
Experimental: as §4, §5

T1 sequence (P32245 whole entry): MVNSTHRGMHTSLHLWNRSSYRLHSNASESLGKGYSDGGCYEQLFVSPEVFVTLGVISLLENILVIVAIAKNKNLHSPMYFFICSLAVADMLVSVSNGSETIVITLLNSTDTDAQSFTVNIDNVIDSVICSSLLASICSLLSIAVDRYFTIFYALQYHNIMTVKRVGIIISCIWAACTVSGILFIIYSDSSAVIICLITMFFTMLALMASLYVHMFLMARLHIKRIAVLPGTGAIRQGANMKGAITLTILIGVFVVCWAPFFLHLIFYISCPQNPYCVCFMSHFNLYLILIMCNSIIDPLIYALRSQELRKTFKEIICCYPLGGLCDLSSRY

Structure (SMILES)	hMC4R PAM LANCE pEC50 Mean (hMC4R [1])	pEC50 (hMC4R [1])	Emax (hMC4R [1]) [%]	α-MSH response (inhibition of Isc) after pretreatment (native L cell MC4R; 3 μM pretreatment)	Effect of compound alone on basal Isc (native L cell MC4R)	MC4R PAM activity on α-MSH induced, PYY mediated short circuit current inhibition (native L cell MC4R; mouse colonic epithelium)	Effect on PYY responses (Y receptor)	α-MSH response (inhibition of Isc) after pretreatment (native L cell MC4R; 1 μM pretreatment, vs vehicle controls)	EC50 (native L cell MC4R; mouse colonic epithelium, read-out: EC50 for potentiation of α-MSH induced short circuit current inhibition) [nM]	Anorexigenic activity, fast-induced refeeding (C57BL/6 mice)	Effect on β2-adrenergic-receptor signaling (cAMP) [2]	Effect on hMC4R signaling (cAMP) with α-MSH EC20 (hMC4R [3])
O=C(CN1CCC2(CCCC2)CC1)Nc1c(C(=O)C2CC2)[nH]c2ccccc12 [Example 2, N-(2-(cyclopropanecarbonyl)-1H-indol-3-yl)-2-(8-azaspiro[4.5]decan-8-yl)acetamide]	6.3	6.3	80	potentiated significantly	not significantly different to vehicle controls	exhibited MC4R PAM activity	unaffected	–	–	–	–	–
COC(=O)c1[nH]c2ccccc2c1NC(=O)CN1CCC(C2CCCCC2)CC1 [Example 3, methyl 3-(2-(4-cyclohexylpiperidin-1-yl)acetamido)-1H-indole-2-carboxylate]	6.7	6.7	102	–	no activity on its own; also recorded: not significantly different from vehicle	nearly tripled the activity of α-MSH	did not modulate the activity of PYY; also recorded: unaffected	significantly increased; also recorded: significantly potentiated	~200	small, but statistically significant anorexigenic activity	–	–
COc1cc(-c2nc(NCc3ccco3)c3ccccc3n2)cc(OC)c1OC [VUO127431, N-(furan-2-ylmethyl)-2-(3,4,5-trimethoxyphenyl)quinazolin-4-amine]	–	–	–	–	–	–	–	–	–	–	no significant effect on β2-adrenergic-receptor signaling	enhanced hMC4R signaling
